For one assay, the system named is Axin2 in SW480 cells. Nature of the assay: cells. It counts as cell-based. The following applies: Homo sapiens, SW480, 24 h, read-out: Axin2 384 IF EC50 IP. The method, then: Using a VPrep, 10 μL of compound/controls was transferred from the compound plate to 60 μL in the cell plate (final 0.5% DMSO, 70 μL). The mixture was incubated for 24 hours at 37° C. at 5% CO2.
The extra media was tapped out. 50 μL of 4% paraformaldehyde (Fisher, AA433689M), 0.1% Triton (Sigma, X100-100 ML) in PBS were added, and the mixture was incubated for 15 minutes at room temperature. […] The extra media was tapped out and to this was added 50 μL of buffer containing Axin2 Antibody (Sigma, SAB1100677-200 µL) at 1:10000 in PBS, 0.1% Tween-20, 1% Normal Goat Serum. The mixture was incubated for 2 hours at room temperature or overnight at 4° C. The cells were then washed twice with PBS, 0.1% Tween-20, and 1% Normal Goat Serum. […] The mixture was then incubated for 30 minutes at room temperature. The cells were then washed twice with PBS, 0.1% Tween-20, and 1% Normal Goat Serum. 50-100 μL PBS was added, and the mixture was covered with a plate seal (Fisher, NC9425162). An ArrayScan (a variation of the compartmental analysis protocol was optimized) was used to scan the plates, and data was analyzed using MEAN_RingSpotAvgIntenCh2). The Axin2 accumulation POC was calculated, and the EC50 was determined using Genedata Screener software to report Axin2 activity.

In assay [1] the test system is total β-catenin in SW480 colorectal cells. Nature of the assay: cells. The following applies: Homo sapiens. It counts as cell-based. As to the method:
Total β-Catenin MSD 96-Well Plate Assay for SW480 Cells
SW480 colorectal cells were seeded at a density of 10,000/well in CellBIND 96-well plates (Corning catalog no. 3300) in 60 μL of normal growth medium (MEM alpha supplemented with 10% heat inactivated FBS, GlutaMAX, pyruvate, and 10 mM HEPES).
A 10-point, 3-fold dilution series for each TNKS inhibitor was constructed in a 96-well “stock” plate. […] The plates were incubated at 37° C. for 40 to 48 hours. The media was removed from the CellBIND plate via plate inversion and gentle shaking and the inverted plate was touched to a paper towel and immediately placed on ice. […] Plates containing cell lysates were sealed and shaken for one hour at 4° C. and then quickly frozen in a −80° C. for approximately 15 to 30 minutes followed by gradually thawing at 4° C. Finally, lysate containing plates were centrifuged @1000×g (2073 rpm) for 10 minutes at 4° C.
The sealed MSD plate was incubated overnight in a cold room with gentle shaking. The MSD plate was then blocked with 150 μL of Blocker “A” per well and incubated overnight at 4° C. with vigorous shaking. The blocked MSD plate was washed 4 times with 150 μL/well TBS-T wash buffer (150 mM NaCl, 50 mM Tris, pH 7.5, 0.02% Tween-20). Cell lysates (75 μL) were transferred to prepared MSD plates and incubated at 4° C. ON with gentle shaking. […] The detection antibody was incubated for 1 hour at room temperature with vigorous shaking after which plates were washed 3 times with 150 μL/well TBS-T wash buffer. Plates were processed for analysis by the addition of 150 μL/well MSD Read 4× Buffer T with surfactant (catalog no. R92TC-2; diluted 1:3 in deionized water) and were read on the SECTOR Imager 6000.

Assay [2] deals with 6×HIS-tankyrase 1 (1091-1325) (Homo sapiens (Human), UniProt O95271). Description: biochemical. The class given is biochemical. The following applies: 400 nM NAD, 60 minutes at room temperature, read-out: TNKS1 IP IC50.
Sequence of 6×HIS-tankyrase 1 (1091-1325) (O95271 1091-1325): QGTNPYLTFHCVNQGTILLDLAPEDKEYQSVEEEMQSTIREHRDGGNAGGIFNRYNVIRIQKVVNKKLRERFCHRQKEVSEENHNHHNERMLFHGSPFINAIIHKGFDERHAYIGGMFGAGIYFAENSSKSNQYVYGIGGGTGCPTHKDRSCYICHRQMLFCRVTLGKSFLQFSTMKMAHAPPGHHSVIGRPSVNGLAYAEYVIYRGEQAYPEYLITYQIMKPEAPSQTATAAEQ
Setting [3] is: SW480 cells, 40 to 48 hours, top concentration 10 μM, read-out: SW480-Total β-Catenin IC50 IP.
[4] abbreviates: SW480, read-out: SW480-Total β-Catenin IC50 IP.

Read-outs that look alike come from different tables or passages of the source.

From US9340549B2, “Oxazolidinone compounds and derivatives thereof” (priority 2012, dated 2016) come the findings set out here.

Usually EC50 stands for the concentration needed to bring the measured effect to its halfway point. As a reminder, the IC50 is the midpoint of a concentration-inhibition curve. As to `CC1(C)OC(=O)N([C@H]2CC[C@H](n3c(=O)[nH]c4cncnc43)CC2)[C@H]1c1ccccc1` [Example 50, (S)-5,5-dimethyl-3-((1r,4S)-4-(8-oxo-7H-purin-9(8H)-yl)cyclohexyl)-4-phenyloxazolidin-2-one], in the assay with Axin2 in SW480 cells (SW480 cells, 24 hours), the EC50 worked out at 391 nM. Also, the IC50 in assay [1] (setting [3]) came to 292 nM.

`CC1(C)OC(=O)N(c2ccc(C(=O)Nc3cccc4cccnc34)cc2)[C@@H]1c1cccc(F)c1` [Example 109, (R)-4-(4-(3-fluorophenyl)-5,5-dimethyl-2-oxooxazolidin-3-yl)-N-(quinolin-8-yl)benzamide]: the EC50 with Axin2 in SW480 cells (SW480 cells, 24 hours) is above 25000 nM. In assay [2] ([…] enzyme), the IC50 is 5530 nM.

Take `CC1(C)OC(=O)N([C@H]2CC[C@@H](c3cnc(N)c(-c4ncccn4)c3)CC2)[C@H]1c1ccccc1` (racemic) [Example 72, 3-((1s,4s)-4-(6-amino-5-(pyrimidin-2-yl)pyridin-3-yl)cyclohexyl)-5,5-dimethyl-4-phenyloxazolidin-2-one]: the EC50 in the assay with Axin2 in SW480 cells worked out at 5810 nM. For the same compound, the IC50 in assay [1] (setting [4]) stood at 6550 nM.

For `CC1(C)OC(=O)N(c2ccc(C(=O)Nc3cccc4cccnc34)cc2)[C@@H]1c1cccnc1` [Example 10, (R)-4-(5,5-dimethyl-2-oxo-4-(pyridin-3-yl)oxazolidin-3-yl)-N-(quinolin-8-yl)benzamide], the concentration for a half-maximal effect (EC50) with Axin2 in SW480 cells (SW480 cells, 24 hours) is above 25000 nM. The IC50 in assay [2] ([…] enzyme) is 4450 nM.

Consider `O=C(Nc1cccc2cccnc12)c1ccc(N2C(=O)OC3(CCCCC3)C2c2ccccc2)cc1` (stereo not drawn) [Example 46, (R+S) 4-(2-oxo-4-phenyl-1-oxa-3-azaspiro[4.5]decan-3-yl)-N-(quinolin-8-yl)benzamide], for which, in the assay on Axin2 in SW480 cells, the EC50 was above 25000 nM. Moreover, in assay [2] ([…] enzyme), the IC50 amounted to 5170 nM.

In the case of `C[C@]1(c2ccccc2)CN([C@H]2CC[C@H](n3c(=O)[nH]c4cc(C#N)ccc43)CC2)C(=O)O1` (single isomer, unassigned) [Example 94], the IC50 was 270 nM in assay [2] ([…] enzyme) and 3010 nM in assay [1] (setting [3]).

`CC1(C)OC(=O)N(c2ccc(C(=O)Nc3cccc4cccnc34)cc2)[C@@H]1c1ccccn1` [Example 122, (R)-4-(5,5-dimethyl-2-oxo-4-(pyridin-2-yl)oxazolidin-3-yl)-N-(quinolin-8-yl)benzamide]: the results for the half-inhibitory concentration (IC50) in assay [2] ([…] enzyme) and in assay [1] (setting [3]) were 1530 nM and 8560 nM, respectively.

On to `CC1(C)OC(=O)N(c2ccc(-n3c(=O)[nH]c4ccccc43)cc2)[C@H]1c1ccccc1` [Example 19, (S)-5,5-dimethyl-3-(4-(2-oxo-2,3-dihydro-1H-benzo[d]imidazol-1-yl)phenyl)-4-phenyloxazolidin-2-one], for which the results for the IC50 in assay [2] ([…] enzyme) and in assay [1] (setting [3]) were 863 nM and 8630 nM, respectively.

Regarding `C[C@@]1(c2ccccc2)CN([C@H]2CC[C@@H](n3c(=O)[nH]c4cc(C#N)ccc43)CC2)C(=O)O1` (stereo in doubt) [Example 93, 1-((1R,4r)-4-((R)-5-methyl-2-oxo-5-phenyloxazolidin-3-yl)cyclohexyl)-2-oxo-2,3-dihydro-1H-benzo[d]imidazole-5-carbonitrile], the IC50 came to 3 nM in assay [2] ([…] enzyme) and 125 nM in assay [1] (setting [3]).

As to `COc1ccc([C@H]2N(c3ccc(C(=O)Nc4cccc5cccnc45)cc3)C(=O)OC2(C)C)cc1` [Example 112, (R)-4-(4-(4-methoxyphenyl)-5,5-dimethyl-2-oxooxazolidin-3-yl)-N-(quinolin-8-yl)benzamide], the EC50 in the assay with Axin2 in SW480 cells (SW480 cells, 24 hours) was above 25000 nM. The IC50 in assay [2] ([…] enzyme) amounted to 2750 nM.

As for `CC1(C)OC(=O)N(c2ccc(-c3cnc(N)c(-c4nccc(C#N)n4)c3)cc2)[C@H]1c1ccccc1` [Example 102, (S)-2-(2-amino-5-(4-(5,5-dimethyl-2-oxo-4-phenyloxazolidin-3-yl)phenyl)pyridin-3-yl)pyrimidine-4-carbonitrile], the figures for the IC50 in assay [2] ([…] enzyme) and in assay [1] (setting [3]) were 920 nM and above 10000 nM, respectively.

Regarding `CC1(C)OC(=O)N(c2ccc(C(=O)Nc3cccc4cccnc34)cc2)C1c1cccc(F)c1` (racemic) [Example 108, (+/−)-(R/S)-4-(4-(3-fluorophenyl)-5,5-dimethyl-2-oxooxazolidin-3-yl)-N-(quinolin-8-yl)benzamide], the IC50 in assay [2] (0.25 nM enzyme) is 551 nM; in assay [1] (setting [3]) it was above 10000 nM.

On to `CC1(C)OC(=O)N(c2ccc(C(=O)Nc3cccc4cccnc34)cc2)C1c1cccnc1` (racemic) [Example 9, (+/−)-(R/S)-4-(5,5-dimethyl-2-oxo-4-(pyridin-3-yl)oxazolidin-3-yl)-N-(quinolin-8-yl)benzamide], for which the IC50 in assay [2] (0.25 nM enzyme) is 1160 nM; in assay [1] (setting [3]) it was 2480 nM.

For the compound `CC1(C)OC(=O)N(c2ccc(C(=O)Nc3cccc4cccnc34)cc2)[C@@H]1c1ccncc1` [Example 125, (R)-4-(5,5-dimethyl-2-oxo-4-(pyridin-4-yl)oxazolidin-3-yl)-N-(quinolin-8-yl)benzamide], the EC50 with Axin2 in SW480 cells (SW480 cells, 24 hours) was above 25000 nM. Also, the IC50 in assay [2] ([…] enzyme) was 7910 nM.

Regarding `Cc1cc(N2C(=O)OC(C)(C)[C@@H]2c2ccccc2)ccc1C(=O)Nc1ccnc2cccnc12` [Example 128, (S)-4-(5,5-dimethyl-2-oxo-4-phenyloxazolidin-3-yl)-2-methyl-N-(1,5-naphthyridin-4-yl)benzamide], the IC50 in assay [2] ([…] enzyme) worked out at 693 nM; in assay [1] (setting [3]), 4350 nM.

Regarding `CC1(C)OC(=O)N(c2ccc(-c3cnc(N)c(-c4nccc(C(=N)N)n4)c3)cc2)[C@H]1c1ccccc1` [Example 99, (S)-2-(2-amino-5-(4-(5,5-dimethyl-2-oxo-4-phenyloxazolidin-3-yl)phenyl)pyridin-3-yl)pyrimidine-4-carboximidamide], the values for the IC50 in assay [2] (0.25 nM enzyme) and in assay [1] (setting [4]) were 14.3 nM and 620 nM, respectively.

`CC1(C)OC(=O)N(c2ccc(C(=O)Nc3nccc4cccnc34)cc2)[C@H]1c1ccccc1` [Example 20, (S)-4-(5,5-dimethyl-2-oxo-4-phenyloxazolidin-3-yl)-N-(1,7-naphthyridin-8-yl)benzamide]: the IC50 was determined as 1480 nM in assay [2] ([…] enzyme) and 5330 nM in assay [1] (setting [3]).

In the case of `CC1(C)OC(=O)N([C@@H]2CC=C(c3cnc4ccn(-c5ncccn5)c4c3)CC2)[C@H]1c1ccccc1` (mixture of isomers) [Example 173, Mixture of (S)-5,5-dimethyl-4-phenyl-3-((S)-4-(1-(pyrimidin-2-yl)-1H-pyrrolo[3,2-b]pyridin-6-yl)cyclohex-3-en-1-yl)oxazolidin-2-one and (S)-5,5-dimethyl-4-phenyl-3-((R)-4-(1-(pyrimidin-2-yl)-1H-pyrrolo[3,2-b]pyridin-6-yl)cyclohex-3-en-1-yl)oxazolidin-2-one], the half-maximal inhibitory concentration (IC50) was determined as 9.26 nM in assay [2] ([…] enzyme) and 1120 nM in assay [1] (setting [3]).

As for `COc1cccc([C@@H]2N(c3ccc(C(=O)Nc4cccc5cccnc45)cc3)C(=O)OC2(C)C)c1` [Example 107, (S)-4-(4-(3-Methoxyphenyl)-5,5-dimethyl-2-oxooxazolidin-3-yl)-N-(quinolin-8-yl)benzamide], the IC50 in assay [2] ([…] enzyme) stood at 89.9 nM; in assay [1] (setting [3]), 2360 nM.

For `CC1(C)OC(=O)N(c2ccc(C(=O)Nc3cccc4cccnc34)cc2)C1c1ccncc1` (racemic) [Example 124, (+/−)-(R/S)-4-(5,5-dimethyl-2-oxo-4-(pyridin-4-yl)oxazolidin-3-yl)-N-(quinolin-8-yl)benzamide], the IC50 turned out to be 767 nM in assay [2] (0.25 nM enzyme) and 1500 nM in assay [1] (setting [3]).

Take `CC1(C)OC(=O)N(c2ccn3c(Nc4ccnc5cccnc45)nnc3c2)[C@H]1c1ccccc1` [Example 71, (S)-3-(3-((1,5-naphthyridin-4-yl)amino)-[1,2,4]triazolo[4,3-a]pyridin-7-yl)-5,5-dimethyl-4-phenyloxazolidin-2-one]: the EC50 in the assay on Axin2 in SW480 cells (SW480 cells, 24 hours) is above 25000 nM. The IC50 in assay [2] ([…] enzyme) came out at 503 nM.
